Source: paper PMC11068671, “New-generation biofilm effective antimicrobial peptides and a real-time anti-biofilm activity assay: CoMIC” (Applied Microbiology and Biotechnology, 2024)
≈ marks a conversion by molar mass, not a printed value. Non-standard residues stand in square brackets, D forms with d. Residues, ends and D or L forms follow the SMILES beside them.

What was measured:
[1] = system: MRSA; format: cell-based, Methicillin-Resistant S. aureus
Text: (§1) NET1, NET2, NET3, and NET4 peptide antibiotics were used in the experiments. For the purpose of the study, both clinical isolates Methicillin-Resistant S. aureus (MRSA), Vancomycin-resistant Enterococcus (VRE), E. coli ER2566, E. coli 13846 bacteria and ATCC strains S. aureus and E. coli bacteria were used in the MIC study. All strains used in this study have been deposited in a strain collection of the Research Laboratory of Acibadem Mehmet Ali Aydinlar University. For experiment 0.5 McFarland bacterial suspension was prepared in Müeller Hinton Broth (MHB) media. In the 96-well plate, serial dilutions of peptide antibiotics starting from 512 to 0 μg/mL were made in MHB media and added 5 µl of bacterial suspensions. After incubated overnight at 37°C, results were evaluated according to turbidity (Teh et al. [2017]). Ampicillin was used as positive controls.

[2] = system: erythrocytes; format: cell-based
Experimental: Hemolytic activity assays were carried out using erythrocytes, using triton X-100 as lysis control agent. Hemolytic activities were analyzed by reading each well with a plate reader spectrophotometer device at 414 nm and the % lysis rate was calculated in Microsoft Excel according to the following formula (Eren et al. [2008]). Lysis%=[OD414-OD414blank]/[OD414totallysis-OD414blank]×100

[3] = system: VRE; format: cell-based, Vancomycin-resistant Enterococcus
Text: as §1

[4] = system: HaCaT cell line; assay: in vitro; format: cell-based
Text: (§2) MTT Cell Proliferation Kit (Sigma), a colorimetric method, was used for this test to evaluate the damage that peptides can cause in eukaryotic cells and all cell lines used in this study have been deposited in a collection of the Research Laboratory of Acibadem Mehmet Ali Aydinlar University. The cell lines of 3T3 (ATCC CRL-1658) and HaCaT (ATCC PCS-200-011) were revived under appropriate culture conditions and made ready for the experiment. The final concentration of peptides reached 64 to 0.5 μg/mL. Samples were worked in triplicates for each concentration. Cells incubated without peptide-treatment under the same conditions were used as a control. Magainin II, a known natural AMP that has no cytotoxic effects, was used as a positive control (Bacalum and Radu [2015]). The results were analyzed by reading them with a 96-well plate reader at 550 and 690 nm.

[5] = in vitro; format: cell-based
Text: as §2

[6] = system: 3T3 cell line; assay: in vitro; format: cell-based
Text: as §2

[7] = system: MRSA biofilm; assay: Antibiofilm activity, conventional crystal violet (CV) method; format: cell-based, Methicillin-resistant S. aureus; conditions: for Peptide concentration inhibiting the biofilm at 100%, Crystal Violet: peptides added at the very beginning of culture; for concentration that could be enough to inhibit the biofilms completely: allowing for deviation of about 16.7 in non-specific CV binding
Experimental: There was 90 µL of 10^6 CFU/mL MRSA in MHB media with fructose transferred into wells. Then, 10 µL of 1:2 serial dilutions of the antimicrobial peptides (1280–0 µg/mL) was added in wells. So that, final concentrations of peptides were 128–0 µg/mL. Plates were incubated at 37°C overnight. After overnight incubation, they were analyzed with conventional CV method. For this purpose, the bacterial cultures were removed, and wells were washed with distilled water. 200 µl of 1% CV dye was added to each well and incubated at room temperature for 15 min in the dark. Then, CV dye was removed, and wells were washed with water. After dried the plate in an oven at 45–50°C, 33% acetic acid was added into wells to dissolve the dye and wells were spectrophotometrically read by Varioscan (Thermo, USA) at 590 nm (Stepanović et al. [2000]). Biofilm inhibiton rates (%) were calculated by the following formula (Liu et al. [2021]): (1-A590ofwellstreatedwithpeptides/[…])×100
Before this calculation, the values obtained from all wells were subtracted from the value from the empty wells (Blank).

[8] = target: Proteinase K (Parengyodontium album, UniProt P06873); assay: Protease resistance, Proteinase K treatment with HPLC analysis; format: in vitro ADME; conditions: analytical HPLC
Chain of Proteinase K (P06873 106-384): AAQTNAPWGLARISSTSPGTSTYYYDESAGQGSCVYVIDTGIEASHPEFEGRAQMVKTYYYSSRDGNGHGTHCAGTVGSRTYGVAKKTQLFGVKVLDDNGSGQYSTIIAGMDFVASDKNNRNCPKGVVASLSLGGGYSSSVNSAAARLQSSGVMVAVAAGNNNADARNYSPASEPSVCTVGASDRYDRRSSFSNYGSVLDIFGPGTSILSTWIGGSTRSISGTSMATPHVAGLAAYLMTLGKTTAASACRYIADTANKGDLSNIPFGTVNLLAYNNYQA
Experimental: Proteinase K was used for testing the resistance of the designed peptides to proteases, since Proteinase K, a serine protease with broad-spectrum cleavage activity that preferentially cleaves aliphatic and aromatic amino acid residues, is widely used in the literature to determine the protease resistance of antimicrobial peptides (Lucio et al. [2017], Wang et al. [2019]). Afterwards, HPLC characterization was performed to understand the effect of Proteinase K on peptides.

[9] = system: MRSA biofilm; assay: Antibiofilm activity, CoMIC method; format: cell-based, Methicillin-resistant S. aureus; conditions: peptides added just before the start of biofilm formation
Experimental: Ninety microliters of 0.5 McF Methicillin-resistant S. aureus (MRSA) (1.5×10^8 CFU/mL) in Congo Red Broth media with fructose was transferred into wells. Plates were incubated at 37°C. At the time just before the start of biofilm formation as optimized in Fig. 4, 10 µL of 1:2 serial dilutions of the antimicrobial peptides (2560–0 µg/mL) was added in wells. So that, final concentrations of peptides were 256–0 µg/mL. Incubation of media continued overnight. Then, wells were evaluated according to their black color formation.

[10] = system: S. aureus ATCC29213; format: cell-based
Text: as §1

[11] = system: E. coli NTCC13846; format: cell-based
Text: as §1

[12] = system: E. coli ATCC25922; format: cell-based
Text: as §1

[13] = system: S. aureus ATCC25923; format: cell-based
Text: as §1

[14] = system: E. coli ER2566; format: cell-based
Text: as §1

[15] = system: S. aureus 29213 biofilm; assay: Antibiofilm activity, crystal violet (CV) replica plate; format: cell-based; conditions: CV method
Experimental: (§3) 1:2 serial dilutions of ciprofloxacine (200–0 µg/mL) and sodium hypochlorite (5–0%) were prepared in Congo Red Broth media with sucrose. S. aureus 29213 were added into culture media with a final concentration of 1×10^6 Colony-forming unit/mL (CFU/mL). All cultures were performed as triplicate and incubated at 37°C overnight and fluorescence measurements were conducted by using Varioscan (Thermo, USA). The excitation/emission wavelengths were used as 525/625 nm. As a replica plate, bacteria in the same broth media, except Congo Red were cultured and analyzed with conventional Crystal Violet (CV) method. For this purpose, the bacterial cultures were removed, and wells were washed with distilled water. There was 200 µl of 1% CV dye added to each well and incubated at room temperature for 15 min in the dark. Then, CV dye was removed, and wells were washed with water. After the plate was dry, 33% acetic acid was added into wells to dissolve the dye and wells were spectrophotometrically read by Varioscan (Thermo, USA) at 590 nm (Stepanović et al. [2000]).

[16] = system: S. aureus 29213 biofilm; assay: Real-time monitoring of antibiofilm activity, CoMIC method; format: cell-based
Experimental: as §3

[17] = S. aureus 29213, added in the very beginning
[18] = S. aureus 29213, added just before biofilm formation
[19] = S. aureus 29213, added at the very beginning of the biofilm culture
[20] = S. aureus 29213, added just before the start of biofilm formation

MIC for biofilms [15, 17] | MIC for biofilms [15, 18] | SMILES | MIC [1] [µg/mL] | HC50 value as times the MIC value [2] | therapeutic index for hemolytic activities [2] | MIC [3] [µg/mL] | IC50 value as times the MIC value [4] | therapeutic index for cytotoxic activities [4] | IC50 ([5]; human) [µg/mL] | IC50 ([5]; mouse) [µg/mL] | therapeutic index for cytotoxic activities [6] | Peptide concentration inhibiting the biofilm at 100%, Crystal Violet [7] [µg/mL] | resistance to proteases (HPLC after proteinase K treatment) [8] | Peptide concentration inhibiting the biofilm at 100%, CoMIC [9] [µg/mL] | MIC [10] [µg/mL] | MIC [11] [µg/mL] | MIC [12] [µg/mL] | MIC [13] [µg/mL] | MIC [14] [µg/mL] | concentration that could be enough to inhibit the biofilms completely ([7]; CV method) | further results
 |  | CC(C)C[C@H](NC(=O)[C@H](CC(C)C)NC(=O)[C@H](CC(C)C)NC(=O)[C@H](CCCNC(=N)N)NC(=O)[C@H](CC(C)C)NC(=O)[C@H](CC(C)C)NC(=O)[C@H](CCCNC(=N)N)NC(=O)[C@H](CCCNC(=N)N)NC(=O)[C@H](CC(C)C)NC(=O)[C@H](CC(C)C)NC(=O)[C@H](CCCNC(=N)N)NC(=O)[C@H](CC(C)C)NC(=O)[C@H](CC(C)C)NC(=O)[C@H](CC(C)C)NC(=O)[C@@H](N)CCCNC(=N)N)C(=O)N[C@@H](CCCNC(=N)N)C(N)=O [NET2, RLLLRLLRRLLRLLLR-NH2] (H-RLLLRLLRRLLRLLLR-NH2; N-terminus assumed) | 64 (≈ 30.7 µM) | 2–8 times | 1 | 2 (≈ 0.959 µM) | 2-4 times | 2 | > 128 | > 128 | 2 | 128 | completely degraded | >256 | 64 (≈ 30.7 µM) | 64 (≈ 30.7 µM) | 64 (≈ 30.7 µM) | 32 (≈ 15.3 µM) | 4 (≈ 1.92 µM) |  | concentration that provided over 50% biofilm inhibition ([7]; CV method): 64 µg/mL
 |  | CC(C)C[C@H](NC(=O)[C@H](N)CCCNC(=N)N)C(=O)N[C@@H](CC(C)C)C(=O)N[C@@H](CC(C)C)C(=O)N[C@H](CCCNC(=N)N)C(=O)N[C@@H](CC(C)C)C(=O)N[C@@H](CC(C)C)C(=O)N[C@H](CCCNC(=N)N)C(=O)N[C@H](CCCNC(=N)N)C(=O)N[C@@H](CC(C)C)C(=O)N[C@@H](CC(C)C)C(=O)N[C@H](CCCNC(=N)N)C(=O)N[C@@H](CC(C)C)C(=O)N[C@@H](CC(C)C)C(=O)N[C@@H](CC(C)C)C(=O)N[C@H](CCCNC(=N)N)C(N)=O [NET3, RLLLRLLRRLLRLLLR-NH2] (H-[dR]LLL[dR]LL[dR][dR]LL[dR]LLL[dR]-NH2; N-terminus assumed) | 2 (≈ 0.959 µM) | 16–32 times | 32 | 0.5 (≈ 0.24 µM) | 16-32 times | 32 | 64 (≈ 30.7 µM) | 32 (≈ 15.3 µM) | 16 | 4 | not fractionated by proteases | 128 | 2 (≈ 0.959 µM) | 2 (≈ 0.959 µM) | 4 (≈ 1.92 µM) | 2 (≈ 0.959 µM) | 0.5 (≈ 0.24 µM) | less than 1 µg/mL | 
 |  | CC(C)C[C@@H](NC(=O)[C@H](N)CCCNC(=N)N)C(=O)N[C@H](CC(C)C)C(=O)N[C@H](CC(C)C)C(=O)N[C@H](CCCNC(=N)N)C(=O)N[C@H](CC(C)C)C(=O)N[C@H](CC(C)C)C(=O)N[C@H](CCCNC(=N)N)C(=O)N[C@H](CCCNC(=N)N)C(=O)N[C@H](CC(C)C)C(=O)N[C@H](CC(C)C)C(=O)N[C@H](CCCNC(=N)N)C(=O)N[C@H](CC(C)C)C(=O)N[C@H](CC(C)C)C(=O)N[C@H](CC(C)C)C(=O)N[C@H](CCCNC(=N)N)C(N)=O [NET4, RLLLRLLRRLLRLLLR-NH2] (H-[dR][dL][dL][dL][dR][dL][dL][dR][dR][dL][dL][dR][dL][dL][dL][dR]-NH2; N-terminus assumed) | 16 (≈ 7.67 µM) |  | 4 | 2 (≈ 0.959 µM) | 4-16 times | 8 | > 128 | > 128 | 8 | 128 | not fractionated by proteases | >256 | 16 (≈ 7.67 µM) | 32 (≈ 15.3 µM) | 8 (≈ 3.84 µM) | 16 (≈ 7.67 µM) | 1 (≈ 0.479 µM) | 64 µg/mL | cytotoxicity at 64 µg/ml ([5]; human): > 50%
12.5 µg/mL | > 200 µg/mL | O=C(O)c1cn(C2CC2)c2cc(N3CCNCC3)c(F)cc2c1=O [ciprofloxacin] |  |  |  |  |  |  |  |  |  |  |  |  |  |  |  |  |  |  | MIC for biofilms [16, 19]: 50 µg/mL; MIC for biofilms [16, 20]: > 200 µg/mL
1.25% | 5% | [Na+].[O-]Cl [sodium hypochlorite] |  |  |  |  |  |  |  |  |  |  |  |  |  |  |  |  |  |  | MIC for biofilms [16, 19]: 1.25%; MIC for biofilms [16, 20]: 1.25%
